# In patent US8507536B2, “Gonadotropin-releasing hormone receptor antagonists and methods relating thereto” (Neurocrine Biosciences, Inc., priority 2007, dated 2013):
# Target: T1, human GnRH receptor (Homo sapiens, UniProt P30968)
# T1 construct: expressed in transfected cells; membrane preparations
# T1 sequence (P30968 1-328): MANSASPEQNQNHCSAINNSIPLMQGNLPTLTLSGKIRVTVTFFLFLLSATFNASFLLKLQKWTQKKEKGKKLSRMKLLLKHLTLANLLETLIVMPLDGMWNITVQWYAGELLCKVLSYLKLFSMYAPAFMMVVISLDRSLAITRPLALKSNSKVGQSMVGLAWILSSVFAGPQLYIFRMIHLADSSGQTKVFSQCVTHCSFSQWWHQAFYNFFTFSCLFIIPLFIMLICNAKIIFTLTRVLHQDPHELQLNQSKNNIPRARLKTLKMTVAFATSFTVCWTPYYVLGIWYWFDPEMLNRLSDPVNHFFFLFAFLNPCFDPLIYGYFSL
# Assay: peptide competitive human receptor binding assays (radioligand displacement)
# Conditions: tested in one or more of the peptide competitive human receptor binding assays
# Description: HEK293 cells stably transfected with the human GnRH receptor are grown for two days after achieving confluence then are harvested by striking tissue culture flasks against a firm surface. Cells are collected by centrifugation at 1000 g for […]. Cell pellets are resuspended in 5% sucrose and homogenized using a polytron homogenizer for two 15 second homogenization steps. Cell homogenates are then centrifuged for 5 minutes at 3000 g to remove nuclei and the supernatant subsequently centrifuged for 30 minutes at 44,000 g to collect the membrane fraction. The membrane pellet is resuspended in GnRH binding buffer (10 mM HEPES, pH 7.5, 150 mM NaCl and 0.1% BSA) and aliquots immediately snap-frozen in liquid nitrogen and stored at −80° C. Protein content of the membrane suspension is determined using the Bio-Rad protein assay kit (Bio-Rad).
# RBL cells stably transfected with the human GnRH receptor are grown to 80% confluency prior to harvesting. The cells are incubated at 37° C. for 10 min in 0.5 mM EDTA/PBS (Ca^++, Mg^++ free), and are dislodged from the plate by gentle rapping of the flasks. Cells are collected and pelleted by centrifugation at 1000 g for 5 minutes. Cell pellets are resuspended in buffer (DPBS supplemented with 10 mM MgCl2, 2 mM EGTA, pH=7.4), and cell lysis is performed using a pressure cell and applying N2 at a pressure of 900 psi for 30 min at 4° C. Unbroken cells and larger debris were removed by centrifugation at 1200 g for 10 min at 4° C. The cell membrane supernatant is then centrifuged at 45,000 g and the resulting membrane pellet is resuspended in assay buffer and homogenized on ice using a tissue homogenizer. Protein concentrations are determined using the Coomassie Plus Protein Reagent kit. Membranes are aliquoted and stored at −80° C. until ready for use.
# Radioligand binding displacement assays using the peptide radioligands are performed in buffer containing 10 mM HEPES, 150 mM NaCl and 0.1% BSA, pH=7.5. Radioligand binding assays employing the use of [^3H]-1-(2,6-difluorobenzyl)-3-[(2R)-amino-2-phenethyl]-5-(2-fluoro-3-methoxyphenyl)-6-methyluracil (here the 3-methoxy group is tritiated) are run in buffer containing 50 mM Tris, 150 mM NaCl, 5 mM MgCl2, 0.01% saponin and 0.5 mM EDTA, pH=7.5. Radioligand displacement assays are performed by incubating radioligand ([^125I-Tyr^5, DLeu^6, NMeLeu^7, Pro^9-NEt]GnRH (0.1 nM), [His^5, ^125I-DTyr^6]GnRH (0.2 nM) (31) or [^3H]-1-(2,6-difluorobenzyl)-3-[(2R)-amino-2-phenethyl]-5-(2-fluoro-3-methoxyphenyl)-6-methyluracil (1 nM)), unlabeled competitors at concentrations ranging from 0.3 pM to 10 μM, and membranes for 2 hrs at rt. 10 to 20 μg protein/well is used from membrane preparations for human, monkey and rabbit GnRH receptor. 5 μg/well and 60 μg/well of membranes are used for rat and dog GnRH receptors, respectively. Binding assays are performed in either Millipore 96-well GF/C filtration plates (for ([^125I-Tyr^5, DLeu^6, NMeLeu^7, Pro^9-NEt]GnRH assays), or in 96 well low binding plates, which are subsequently filtered onto GF/C Unifilters. Filters are pretreated with 0.5% PEI for 30 min prior to use. Reactions are terminated by rapid vacuum filtration, and the filters are washed twice with 250 μL ice cold PBS pH=7.4 (0.01% Tween-20 is included in wash media for [His^5, ^125I-DTyr^6]GnRH and [^3H]-1-(2,6-difluorobenzyl)-3-[(2R)-amino-2-phenethyl]-5-(2-fluoro-3-methoxyphenyl)-6-methyluracil radioligands). The filters are dried, and the Millipore filters are monitored for radioactivity using a Cobra II gamma counter (Perkin Elmer Life Sciences). For assays filtered onto the GF/C Unifilter plates, 50 μL scintillation fluid is added to each filter, and radioactivity is monitored using a TopCount NXT. For iodinated radioligands, total radioligand is monitored on a gamma counter, and for the tritiated radioligand, total radioligand is monitored using a Perkin Elmer 1600TR liquid scintillation counter. […]
row,Structure (SMILES),Ki [nM]
1,"CC1(C)CCN(S(=O)(=O)c2cc(-c3cnc(C(F)(F)F)cc3C#N)c(Cl)cc2OCCC(=O)O)c2ccccc21 [Example 12-3, 3-[5-chloro-4-(4-cyano-6-trifluoromethyl-pyridin-3-yl)-2-(4,4-dimethyl-3,4-dihydro-2H-quinoline-1-sulfonyl)-phenoxy]-propionic acid]",≤ 100
2,Cc1cc(C(F)(F)F)ncc1-c1cc(S(=O)(=O)N2CCOc3ccccc32)ccc1Cl [Example 4-11],≤ 100
3,"Cc1cc(Cl)ncc1-c1cc(S(=O)(=O)N2CCCCc3ccccc32)ccc1Cl [Example 4-1, 1-[4-chloro-3-(6-chloro-4-methyl-pyridin-3-yl)-benzenesulfonyl]-2,3,4,5-tetrahydro-1H-1-benzazepine]",≤ 100
4,N#Cc1cc(C(F)(F)F)ncc1-c1cc(S(=O)(=O)N2CCCCc3ccccc32)c(OCC(=O)O)cc1Cl [Example 7-5],≤ 100
5,CC1CCc2ccccc2N1S(=O)(=O)c1ccc(Cl)c(-c2cnc(Cl)cc2Cl)c1 (stereo not drawn) [Example 5-6],≤ 100
6,Cc1cc(Cl)ncc1-c1cc(S(=O)(=O)N2CCOc3ccccc32)ccc1Cl [Example 4-4],≤ 100
7,N#Cc1cc(C(F)(F)F)ncc1-c1cc(S(=O)(=O)N2CCOc3ccccc32)ccc1Cl [Example 4-15],≤ 100
8,Cc1cc(Cl)ncc1-c1cc(S(=O)(=O)N2CCC(C)(C)c3ccccc32)ccc1Cl [Example 4-5],≤ 100
9,N#Cc1cc2ccccc2nc1-c1cc(S(=O)(=O)N2CCCCc3ccccc32)c(O)cc1Cl [Example 8-3],≤ 100
10,N#Cc1cc(C(F)(F)F)ncc1-c1cc(S(=O)(=O)N2CCCOc3ccccc32)ccc1Cl [Example 4-24],≤ 100
11,Cc1cccc2c1N(S(=O)(=O)c1ccc(Cl)c(-c3cnc(C(F)(F)F)cc3C#N)c1)CCC2 [Example 4-14],≤ 100
12,CC1(C)CCN(S(=O)(=O)c2ccc(Cl)c(-c3cnc(Cl)cc3Cl)c2)c2ccccc21 [Example 5-5],≤ 100
13,"Cc1cc(C#N)ncc1-c1cc(S(=O)(=O)N2CCCCc3ccccc32)c(OCCC(=O)O)cc1Cl [Example 10-1, 3-[5-chloro-4-(6-cyano-4-methyl-pyridin-3-yl)-2-(2,3,4,5-tetrahydro-benzo[b]azepine-1-sulfonyl)-phenoxy]-propionic acid]",≤ 100
14,CC(C)(C)OC(=O)COc1cc(Cl)c(-c2cnc(C(F)(F)F)cc2C#N)cc1S(=O)(=O)N1CCCCc2ccccc21 [Example 6-5],≤ 100
15,N#Cc1cc2ccccc2nc1-c1cc(S(=O)(=O)N2CCCCc3ccccc32)ccc1Cl [Example 4-18],≤ 100

# Further lines, results first:
row,Ki [nM],Structure (SMILES)
1,≤ 100,COc1cc(Cl)c(-c2cnc(C(F)(F)F)cc2C#N)cc1S(=O)(=O)N(C)c1ccc(Cl)cc1 [Example 15-10]
2,≤ 100,"CC1(C)CCN(S(=O)(=O)c2cc(-c3cnc(C(F)(F)F)cc3C#N)c(Cl)cc2CC(=O)O)c2ccccc21 [Example 17-1, [5-Chloro-4-(4-cyano-6-trifluoromethyl-pyridin-3-yl)-2-(4,4-dimethyl-3,4-dihydro-2H-quinoline-1-sulfonyl)-phenyl]-acetic acid]"
3,≤ 100,COc1cc(Cl)c(-c2cnc(C(F)(F)F)cc2C#N)cc1S(=O)(=O)N(C)c1ccc(F)cc1 [Example 15-6]
4,≤ 100,COc1cc(Cl)c(-c2cnc(C(F)(F)F)cc2C#N)cc1S(=O)(=O)N(C)Cc1cccc(C)n1 [Example 15-38]
5,≤ 100,COc1cccc(CN(C)S(=O)(=O)c2cc(-c3cnc(C(F)(F)F)cc3C#N)c(Cl)cc2OC)c1 [Example 15-32]
6,≤ 100,COc1cc(Cl)c(-c2cnc(C(F)(F)F)cc2C#N)cc1S(=O)(=O)N(C)Cc1ccccc1F [Example 15-35]
7,≤ 100,COc1cc(Cl)c(-c2cnc(C(F)(F)F)cc2C#N)cc1S(=O)(=O)N(C)[C@H](C)c1ccccc1 [Example 15-43]
8,≤ 100,"CN(c1ccccn1)S(=O)(=O)c1cc(-c2cnc(C(F)(F)F)cc2C#N)c(Cl)cc1OCC(=O)O [Example 18-3, [5-chloro-4-(4-cyano-6-trifluoromethyl-pyridin-3-yl)-2-(methyl-pyridin-2-yl-sulfamoyl)-phenoxy]-acetic acid]"
9,≤ 100,COc1cc(Cl)c(-c2cnc(C(F)(F)F)cc2C#N)cc1S(=O)(=O)N(C)[C@@H](C)c1ccccc1 [Example 15-44]
